One compound from patent publication US20240374753A1, “USE OF AN AGONIST OF FORMYL PEPTIDE RECEPTORS 1 AND 2 FOR TREATING OCULAR INFLAMMATORY DISEASES” (ALLGENESIS BIOTHERAPEUTICS INC., priority 2023, published 2024) can be followed below.

For series [1], the system named is patients with dry eye disease. Nature of the series: Safety and tolerability (TEAEs), Phase 1b study. In kind it is in vivo, human. To be noted: BID for 3 months, both formulations.
For series [2], the system named is patients with dry eye disease. Put plainly: 7-item VAS symptom assessment, Phase 1b study. The series is classed as in vivo, human. To be noted: overall study summary. The protocol: (§1) A multicenter, double-masked, randomized, parallel-group Phase 1b study evaluating the safety, tolerability, and dose-response of AG-80308 ophthalmic solution administered twice daily for 3 months in 84 patients with dry eye disease was conducted. […] 2-Hydroxypropyl-beta-cyclodextrin (HPβCD) was used in formulations A and B. The efficacy measures included both signs (ocular surface staining, tear film breakup time, Schirmer's test, meibomian gland assessments) and symptoms (7-item visual analog scale (VAS) assessments: burning/stinging, itching, foreign body sensation, eye discomfort, eye dryness, photophobia, pain and ocular surface disease index).
(§2) In this study, a single eye drop (approximately 30 μL) of AG-80308 was administered BID (approximately 12 hours apart) to the study eye every day until the Day 84 visit.
The VAS symptom assessment was performed at Visit 1 (Day −30 to Day −2), Visit 2 (Day 1), Visit 3 (Day 15), Visit 4 (Day 43), and Visit 5 (Day 84). Subjects were asked to rate each ocular symptom, unrelated to study drug instillation, by placing a vertical mark on the horizontal line to indicate the level of discomfort. Zero millimeters (mm) corresponds to “no discomfort” and 100 mm corresponds to “maximal discomfort. The symptoms evaluated were burning/stinging, itching, foreign body sensation, eye discomfort, eye dryness, photophobia, and pain. […]

A short description of series [3]: Stabilisation/solubility of AG-80308 with HPβCD. The series is classed as physicochemical. To be noted: storage or stress conditions.
Series [4] relates to patients with dry eye disease. Nature of the series: Corneal fluorescein staining (NEI Scale), Phase 1b study. In kind it is in vivo, human. To be noted: for Corneal staining, unit improvement from baseline: p<0.05. The protocol:
as §1, §2
Corneal fluorescein staining was assessed in each eye at Visit 1 (Day −30 to Day −2), Visit 2 (Day 1), Visit 4 (Day 43), and Visit 5 (Day 84) using the NEI Scale. The NEI Scale uses a standardized grading system of 0 to 3 using whole number units for each of the […] areas on each cornea. Grade 0 was specified when no staining is present.

Series [5] concerns patients with dry eye disease. Put plainly: Ocular surface disease index, Phase 1b study. In kind it is in vivo, human. To be noted: overall study summary. As to the method:
as §1, §2

A short description of another series: Preclinical studies. In kind it is in vivo.

Take `CC(C)C[C@H](NC(=O)Nc1ccc(Br)cc1)C(=O)NCC(=O)O` [AG-80308, {[(2S)-2-{[(4-bromophenyl)carbamoyl]amino}-4-methylpentanoyl]amino}acetic acid]: the Safety entry in series [1] is reported as “proven safe”. Also, the “7-item visual analog scale for dry eye symptoms” value in series [2] was “clinically meaningful unit reductions”. The “Effect of HPβCD on stability and solubility of AG-80308” value in series [3] was “increasing solubility of AG-80308 and its degradant, preventing precipitation”. Moreover, the “Corneal staining, unit improvement from baseline” value in series [4] (Day 43, LS Mean±SE) was −2.1±0.57; in series [4] (Day 84, LS Mean±SE), −2.7±0.57. In series [4] (overall study summary), the “Corneal and conjunctival staining” value is on record as “clinically meaningful unit reductions”. Moreover, in series [5], the “Ocular surface disease index scores” value is given as “clinically meaningful unit reductions”. For the same compound, the “Efficacy in preclinical studies” value in the series “Preclinical studies” is reported as “rapid efficacy similar to steroids without any impairment of wound healing”. In addition, in “Preclinical studies”, the “Safety and tolerability in preclinical studies” value is “wide margin of safety and tolerability”.
